The text below walks through data of the supplement of paper PMC5770543.

± gives the standard deviation. Bounds are passed on as bounds.

Assay [1] deals with Toxoplasma gondii RH tachyzoites. Put plainly: % growth inhibition vs DMSO (48 h luciferase); higher = more inhibition. Particulars: 10 µM.
For assay [2], the system named is Plasmodium falciparum 3D7. Put plainly: % inhibition of schizont-to-ring transition vs DMSO; higher = more inhibition. The method in brief: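 Schizont-to-ring transition inhibition is the formation of new rings relative to vehicle controls. Tightly synchronised P. falciparum schizonts at about 40–42 hours post-invasion (1% parasitemia, 2.5% hematocrit, AlbuMAX-supplemented RPMI) were treated with compound at 1, 3 or 10 µM, alongside vehicle and positive controls. After glutaraldehyde fixation, Triton permeabilisation and Hoechst 33342 staining, at least 100,000 events were counted by flow cytometry, and values are the mean of three experiments.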

The subject of assay [3] is Toxoplasma gondii RH tachyzoites. Kind of assay: plaque count per well; higher = less inhibition; extreme values may be limits of the assay. The settings on record: 10 µM; 8-10 days. As to the method:
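T. gondii RH tachyzoites expressing firefly luciferase were grown in HFF monolayers for 48 h with compound. % growth inhibition at 10 µM and EC50 (2-fold dilutions from 10 µM) were read by luminescence relative to 1% DMSO; EC50 listed as 10 (not determined, <80% inhibition) is left out. Plaque assays: 50 tachyzoites per well with 10 µM compound for 8-10 days, giving plaque count and area by crystal violet/ImageJ. Egress: median time to egress after 1 µM A23187 ionophore following 24 h of 10 µM compound (DMSO ~1.8 min; >10 = no egress within 10 min).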

Assay [4] deals with Plasmodium falciparum 3D7. Put plainly: EC50 growth inhibition (60 h, SYBR Green). Particulars: stage: ring-stage start.
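Wherever % growth inhibition vs DMSO (48 h luciferase) is given: tested in triplicate wells of 96-well plates on confluent HFF monolayers, with 1% DMSO wells as negative control in four replicates.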

Turning to `O=C(Nc1ccsc1C(=O)NC1CCCCC1)c1ccc(F)cc1`, the “% growth inhibition” value in assay [1] was under 0%. Besides, the “% inhibition of schizont-to-ring transition” value (“% inhibition” for short) in assay [2] (1 µM) turned out to be 4.95%; in assay [2] (3 µM), 8.54%; in assay [2] (10 µM), 14.8%. Further, in assay [3], the “plaque count per well” value is 20.
Take `CC(C)CNC(=O)c1c(N)n(CCc2ccccc2F)c2nc3ccccc3nc12`: the “% growth inhibition” value in assay [1] is under 0%. Further, the results for the “% inhibition” value in assay [2] (1 µM), in assay [2] (3 µM) and in assay [2] (10 µM) were under 0%, under 0% and 15%, respectively. Besides, in assay [3], the “plaque count per well” value is 28.
On to `Cc1ccc(N2C3c4ccccc4N(S(=O)(=O)c4ccc(C)cc4)C2c2ccccc2N3S(=O)(=O)c2ccc(C)cc2)cc1`, for which the “% growth inhibition” value in assay [1] amounted to 19.1 ± 3%. Further, the “% inhibition” value in assay [2] (1 µM) is under 0%; in assay [2] (3 µM), 5.25%; in assay [2] (10 µM), 18.3%. The “plaque count per well” value in assay [3] came to 0.
As to `COc1ccc(CCNC(=O)c2cc(S(=O)(=O)N3CC(C)CC(C)C3)ccc2Sc2ccc(F)cc2)cc1OC` (stereo not given), the “% growth inhibition” value in assay [1] came to 11.7 ± 10%. In addition, the “% inhibition” value in assay [2] (1 µM) is 11.3%; in assay [2] (3 µM), 12.5%; in assay [2] (10 µM), 22.9%. In addition, in assay [3], the “plaque count per well” value amounted to 28.
Consider `CCOC(=O)C1=C(C)N=c2sc(=Cc3ccccc3O)c(=O)n2C1c1ccc(OC)c2ccccc12` (stereo not given), for which, in assay [1], the “% growth inhibition” value is 4.31 ± 0.81%. For the same compound, the “% inhibition” value worked out at 13.3% in assay [2] (1 µM), 53.1% in assay [2] (3 µM) and 60.5% in assay [2] (10 µM). In addition, in assay [3], the “plaque count per well” value stood at 18.
The corresponding values for `CCCCCCOC(=O)C1=C(C)NC(=O)NC1c1ccccc1F` (stereo not given) are under 0%, 32.7%, 32.8%, 40.9% and 31.
The corresponding values for `Cc1ccc(-c2nc3ccccc3o2)cc1NCc1cc(Cc2ccccc2)ccc1O` are under 0%, 36.5%, 47.5%, 56.6% and 36.
The corresponding values for `CC(C)(C)c1ccc(C(=O)Nc2nc3ccccc3s2)cc1` are 12.1 ± 13%, 44.3%, 45.2%, 54.4% and 33.
`COc1ccc(CCN2C(=O)c3[nH]nc(-c4cc(Cl)c(C)cc4O)c3C2c2ccccc2F)cc1` (stereo not given): the “% growth inhibition” value in assay [1] is under 0%. The “% inhibition” value is 20% in assay [2] (1 µM), 20.6% in assay [2] (3 µM) and 46.1% in assay [2] (10 µM). Further, the “plaque count per well” value in assay [3] turned out to be 0.
As for `COc1ccc(C)c2sc(N(Cc3cccnc3)C(=O)c3ccc(C#N)cc3)nc12`, in assay [1], the “% growth inhibition” value is under 0%. The “% inhibition” value turned out to be 21.7% in assay [2] (1 µM), 24.1% in assay [2] (3 µM) and 58.5% in assay [2] (10 µM). Further, the “plaque count per well” value in assay [3] was 23.
Consider `CCOc1ccccc1NC(=O)CN1CCN(C(=O)c2ccco2)CC1`, for which the “% growth inhibition” value in assay [1] was under 0%. In addition, the “% inhibition” value in assay [2] (1 µM) worked out at 43.4%; in assay [2] (3 µM), 49.8%; in assay [2] (10 µM), 60%. Further, the “plaque count per well” value in assay [3] amounted to 35.
Turning to `CN(C)c1ccc(N=Cc2ccc(N3CCOCC3)cc2)cc1`, the “% growth inhibition” value in assay [1] is under 0%. In addition, the figures for the “% inhibition” value in assay [2] (1 µM), in assay [2] (3 µM) and in assay [2] (10 µM) were 17.3%, 20% and 24%, respectively. Further, the “plaque count per well” value in assay [3] worked out at 22.
For `Nc1ccn([C@@H]2O[C@H](CO)[C@@H](O)[C@H]2O)c(=O)n1` the same measures were under 0%, 35.8%, 40.5%, 42.6% and 29.
In the case of `Cc1cc(NC(=O)c2cccc(C(F)(F)F)c2)n(-c2nc(-c3ccc4c(c3)OCO4)cs2)n1`, the “% growth inhibition” value in assay [1] is under 0%. Moreover, the “% inhibition” value in assay [2] (1 µM) was 13.2%; in assay [2] (3 µM), 16.2%; in assay [2] (10 µM), 18.9%. In addition, the “plaque count per well” value in assay [3] worked out at 26.
For `COc1ccc(C2N(C)c3ccccc3N2C)cc1`, the “% growth inhibition” value in assay [1] came to 15.2 ± 13%. Moreover, the “% inhibition” value in assay [2] (1 µM) was under 0%; in assay [2] (3 µM), under 0%; in assay [2] (10 µM) it was 11.8%. For the same compound, the “plaque count per well” value in assay [3] came out at 28.
As to `Cc1ccc(C(=O)c2oc3ccc4c(C)cc(=O)oc4c3c2C)cc1`, the “% growth inhibition” value in assay [1] is under 0%. Also, the figures for the “% inhibition” value in assay [2] (1 µM), in assay [2] (3 µM) and in assay [2] (10 µM) were 6.95%, 10.6% and 20.4%, respectively. Besides, the “plaque count per well” value in assay [3] was 24.
Turning to `O=C(NC1CCN(Cc2ccccc2)CC1)c1cc(-c2ccncc2)nc2ccc(Cl)cc12`, the “% growth inhibition” value in assay [1] turned out to be 54.7 ± 2.7%. In addition, the “% inhibition” value in assay [2] (1 µM) worked out at 22.1%; in assay [2] (3 µM) it was 60.9%; in assay [2] (10 µM), 63.4%. This compound showed an EC50 growth inhibition in assay [4] of 1.92 µM.
